Starred links: 1 amine or outer side, 2 acyl side, 3 side chain; linkers in the order of their positions; H or OH if unused. Positions of bridges follow the written chain, without caps; N, C: chain ends. Non-standard residues stand in square brackets, D forms with d. Residues, ends and D or L forms follow the SMILES beside them. *: point of attachment. hPhe(3,5-F2-4-CF3) = N[C@@H](CCc1cc(F)c(C(F)(F)F)c(F)c1)C(=O)O; hPhe(3-Cl-4-CF3) = N[C@@H](CCc1ccc(C(F)(F)F)c(Cl)c1)C(=O)O; X38 = CN([C@@H](Cc1cccc(OC(F)(F)F)c1)C(=O)[*:2])[*:1]; NMePhe(4-CF3) = CN[C@@H](Cc1ccc(C(F)(F)F)cc1)C(=O)O; NMePhe(3,4-F2) = CN[C@@H](Cc1ccc(F)c(F)c1)C(=O)O; NMePhe(3-OMe) = CN[C@@H](Cc1cccc(OC)c1)C(=O)O; NMePhe(4-CN) = CN[C@@H](Cc1ccc(C#N)cc1)C(=O)O; NMePhe(4-Me) = CN[C@@H](Cc1ccc(C)cc1)C(=O)O; NMePhe(3-I) = CN[C@@H](Cc1cccc(I)c1)C(=O)O; NMePhe(4-F) = CN[C@@H](Cc1ccc(F)cc1)C(=O)O; NMeNva(5,5-F2) = CN[C@@H](CCC(F)F)C(=O)O; dβ3hPip = O=C(C[C@H]1CCCCN1[*:1])[*:2]; NMe4Pal = CN[C@@H](Cc1ccncc1)C(=O)O; NMeY = CN[C@@H](Cc1ccc(O)cc1)C(=O)O; NMeI = CC[C@H](C)[C@H](NC)C(=O)O; d(β3hL) = CC(C)C[C@@H](N)CC(=O)O; dNMeF = CN[C@H](Cc1ccccc1)C(=O)O; NMeD = CN[C@@H](CC(=O)O)C(=O)O; NMeL = CN[C@@H](CC(C)C)C(=O)O; NMeA = CN[C@@H](C)C(=O)O; Piperidide = C1CCN(*)CC1; Ac5c = NC1(C(=O)O)CCCC1; Aze = O=C(O)[C@@H]1CCN1; CF3 = FC(F)(F)*; Sar = CNCC(=O)O
Biological target: T1, Kras and SOS1 (biotin-tagged human Kras loaded with GDP, His-tagged human SOS1) (Homo sapiens, UniProt P01116, G12D)
T1 construct: made in house; host or cells: E. coli (stated for Kras only)
T1 sequence (P01116 1-188 isoform P01116-2 G12D): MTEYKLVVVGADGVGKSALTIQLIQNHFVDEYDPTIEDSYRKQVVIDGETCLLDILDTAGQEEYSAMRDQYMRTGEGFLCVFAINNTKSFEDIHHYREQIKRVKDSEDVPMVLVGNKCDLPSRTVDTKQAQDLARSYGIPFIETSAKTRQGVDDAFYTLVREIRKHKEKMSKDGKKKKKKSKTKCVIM
Assay: Protein-protein interaction inhibition between Kras and SOS1 (KrasGl2D-SOS PPI) using AlphaScreen
Type: binding
Details: AlphaScreen; biotin-tagged human Kras loaded with GDP, His-tagged human SOS1; read-out: KRAS G12D-SOS PPI IC50
How it was run: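 Donor beads (nickel) hold His-SOS1; acceptor beads (streptavidin) hold biotin-Kras bound to GDP. Signal measured at 520-620 nm following 680 nm excitation.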

SMILES	IC50
CC[C@H](C)[C@@H]1NC(=O)[C@H](CC(C)C)N(C)C(=O)C[C@@H](C(=O)N(C)C)N(C)C(=O)[C@H]([C@@H](C)CC)N(C)C(=O)[C@H](C(C)C)NC(=O)[C@H](Cc2ccncc2)N(C)C(=O)[C@H](CCc2ccc(C(F)(F)F)c(Cl)c2)NC(=O)CN(C)C(=O)[C@H](Cc2ccc(C)cc2)N(C)C(=O)[C@@H]2CCN2C(=O)[C@H](C)N(C)C1=O [Compound 1897] ([NMeL]I[NMeA][Aze][NMePhe(4-Me)][Sar][hPhe(3-Cl-4-CF3)][NMe4Pal]V[NMeI][NMeD]-NMe2; lactam N-11)	9.9 nM
CC[C@H](C)[C@@H]1NC(=O)[C@H](CC(C)C)N(C)C(=O)C[C@@H](C(=O)N(C)C)N(C)C(=O)[C@H]([C@@H](C)CC)N(C)C(=O)C2(CCCC2)NC(=O)[C@H](CCC(F)F)N(C)C(=O)[C@H](CCc2ccc(C(F)(F)F)c(Cl)c2)NC(=O)CN(C)C(=O)[C@H](Cc2ccc(C)cc2)N(C)C(=O)[C@@H]2CCN2C(=O)[C@H](C)N(C)C1=O [Compound 1898] ([NMeL]I[NMeA][Aze][NMePhe(4-Me)][Sar][hPhe(3-Cl-4-CF3)][NMeNva(5,5-F2)][Ac5c][NMeI][NMeD]-NMe2; lactam N-11)	0.93 nM
CC[C@H](C)[C@@H]1NC(=O)[C@H](CC(C)C)N(C)C(=O)C[C@@H](C(=O)N(C)C)N(C)C(=O)[C@H]([C@@H](C)CC)N(C)C(=O)C2(CCCC2)NC(=O)[C@H](Cc2ccc(OC(F)(F)F)cc2)N(C)C(=O)[C@H](CCc2ccc(C(F)(F)F)c(Cl)c2)NC(=O)CN(C)C(=O)[C@H](Cc2ccc(C)cc2)N(C)C(=O)[C@@H]2CCN2C(=O)[C@H](C)N(C)C1=O [Compound 1902] ([NMeL]I[NMeA][Aze][NMePhe(4-Me)][Sar][hPhe(3-Cl-4-CF3)][NMeY](CF3)[Ac5c][NMeI][NMeD]-NMe2; lactam N-11)	54 nM
CC[C@H](C)[C@@H]1NC(=O)[C@H](C)N(C)C(=O)C[C@@H](C(=O)N(C)C)N(C)C(=O)[C@H]([C@@H](C)CC)N(C)C(=O)C2(CCCC2)NC(=O)[C@H](Cc2ccc(OC)cc2)N(C)C(=O)[C@H](CCc2ccc(C(F)(F)F)c(Cl)c2)NC(=O)CN(C)C(=O)[C@H](Cc2ccc(C)cc2)N(C)C(=O)[C@@H]2CCN2C(=O)[C@H](C)N(C)C1=O [Compound 1903] ([NMeA]I[NMeA][Aze][NMePhe(4-Me)][Sar][hPhe(3-Cl-4-CF3)][NMeY](Me)[Ac5c][NMeI][NMeD]-NMe2; lactam N-11)	4 nM
CC[C@H](C)[C@@H]1NC(=O)[C@H](CC(C)C)N(C)C(=O)C[C@@H](C(=O)N(C)C)N(C)C(=O)[C@H]([C@@H](C)CC)N(C)C(=O)C2(CCCC2)NC(=O)[C@@H](Cc2ccccc2)N(C)C(=O)[C@H](CCc2ccc(C(F)(F)F)c(Cl)c2)NC(=O)CN(C)C(=O)[C@H](Cc2ccc(C)cc2)N(C)C(=O)[C@@H]2CCN2C(=O)[C@H](C)N(C)C1=O [Compound 1909] ([NMeL]I[NMeA][Aze][NMePhe(4-Me)][Sar][hPhe(3-Cl-4-CF3)][dNMeF][Ac5c][NMeI][NMeD]-NMe2; lactam N-11)	110 nM
CC[C@H](C)[C@@H]1NC(=O)[C@H](CC(C)C)N(C)C(=O)C[C@@H](C(=O)N(C)C)N(C)C(=O)[C@H]([C@@H](C)CC)N(C)C(=O)C2(CCCC2)NC(=O)[C@H](Cc2cccc(I)c2)N(C)C(=O)[C@H](CCc2ccc(C(F)(F)F)c(Cl)c2)NC(=O)CN(C)C(=O)[C@H](Cc2ccc(C)cc2)N(C)C(=O)[C@@H]2CCN2C(=O)[C@H](C)N(C)C1=O [Compound 1910] ([NMeL]I[NMeA][Aze][NMePhe(4-Me)][Sar][hPhe(3-Cl-4-CF3)][NMePhe(3-I)][Ac5c][NMeI][NMeD]-NMe2; lactam N-11)	60 nM
CC[C@H](C)[C@@H]1NC(=O)[C@H](CC(C)C)N(C)C(=O)C[C@H]2CCCCN2C(=O)[C@H]([C@@H](C)CC)N(C)C(=O)C2(CCCC2)NC(=O)[C@@H]2CCCN2C(=O)[C@H](CCc2ccc(C(F)(F)F)c(Cl)c2)NC(=O)CN(C)C(=O)[C@H](Cc2ccc(C)cc2)N(C)C(=O)[C@@H]2CCN2C(=O)[C@H](C)N(C)C1=O [Compound 1912] (cyclo([Ac5c][NMeI][dβ3hPip][NMeL]I[NMeA][Aze][NMePhe(4-Me)][Sar][hPhe(3-Cl-4-CF3)]P))	27 nM
CC[C@H](C)[C@@H]1NC(=O)[C@H](C)N(C)C(=O)C[C@@H](C(=O)N(C)C)N(C)C(=O)[C@H]([C@@H](C)CC)N(C)C(=O)C2(CCCC2)NC(=O)[C@H](Cc2ccc(F)cc2)N(C)C(=O)[C@H](CCc2cc(F)c(C(F)(F)F)c(F)c2)NC(=O)CN(C)C(=O)[C@H](Cc2ccc(C)cc2)N(C)C(=O)[C@@H]2CCN2C(=O)[C@H](C)N(C)C1=O [Compound 1914] ([NMeA]I[NMeA][Aze][NMePhe(4-Me)][Sar][hPhe(3,5-F2-4-CF3)][NMePhe(4-F)][Ac5c][NMeI][NMeD]-NMe2; lactam N-11)	7.7 nM
CC[C@H](C)[C@@H]1NC(=O)[C@H](CC(C)C)N(C)C(=O)C[C@@H](CC(C)C)NC(=O)[C@H]([C@@H](C)CC)N(C)C(=O)C2(CCCC2)NC(=O)[C@@H]2CCCN2C(=O)[C@H](CCc2cc(F)c(C(F)(F)F)c(F)c2)NC(=O)CN(C)C(=O)[C@H](Cc2ccc(C(F)(F)F)cc2)N(C)C(=O)[C@@H]2CCN2C(=O)[C@H](C)N(C)C1=O [Compound 1918] (cyclo([Ac5c][NMeI][d(β3hL)][NMeL]I[NMeA][Aze][NMePhe(4-CF3)][Sar][hPhe(3,5-F2-4-CF3)]P))	280 nM
CC[C@H](C)[C@@H]1NC(=O)[C@H](C)N(C)C(=O)C[C@@H](C(=O)N(C)C)N(C)C(=O)[C@H]([C@@H](C)CC)N(C)C(=O)C2(CCCC2)NC(=O)[C@H](Cc2cccc(OC)c2)N(C)C(=O)[C@H](CCc2ccc(C(F)(F)F)c(Cl)c2)NC(=O)CN(C)C(=O)[C@H](Cc2ccc(C)cc2)N(C)C(=O)[C@@H]2CCN2C(=O)[C@H](C)N(C)C1=O [Compound 1922] ([NMeA]I[NMeA][Aze][NMePhe(4-Me)][Sar][hPhe(3-Cl-4-CF3)][NMePhe(3-OMe)][Ac5c][NMeI][NMeD]-NMe2; lactam N-11)	3.1 nM
CC[C@H](C)[C@@H]1NC(=O)[C@H](CC(C)C)N(C)C(=O)C[C@@H](C(=O)N(C)C)N(C)C(=O)[C@H]([C@@H](C)CC)N(C)C(=O)C2(CCCC2)NC(=O)[C@H](Cc2ccc(C#N)cc2)N(C)C(=O)[C@H](CCc2ccc(C(F)(F)F)c(Cl)c2)NC(=O)CN(C)C(=O)[C@H](Cc2ccc(C)cc2)N(C)C(=O)[C@@H]2CCN2C(=O)[C@H](C)N(C)C1=O [Compound 1927] ([NMeL]I[NMeA][Aze][NMePhe(4-Me)][Sar][hPhe(3-Cl-4-CF3)][NMePhe(4-CN)][Ac5c][NMeI][NMeD]-NMe2; lactam N-11)	3.3 nM
CC[C@H](C)[C@@H]1NC(=O)[C@H](CC(C)C)N(C)C(=O)C[C@@H](C(=O)N(C)C)N(C)C(=O)[C@H]([C@@H](C)CC)N(C)C(=O)C2(CCCC2)NC(=O)[C@H](Cc2ccc(OC)cc2)N(C)C(=O)[C@H](CCc2ccc(C(F)(F)F)c(Cl)c2)NC(=O)CN(C)C(=O)[C@H](Cc2ccc(C)cc2)N(C)C(=O)[C@@H]2CCN2C(=O)[C@H](C)N(C)C1=O [Compound 1935] ([NMeL]I[NMeA][Aze][NMePhe(4-Me)][Sar][hPhe(3-Cl-4-CF3)][NMeY](Me)[Ac5c][NMeI][NMeD]-NMe2; lactam N-11)	11 nM
CC[C@H](C)[C@@H]1NC(=O)[C@H](C)N(C)C(=O)C[C@@H](C(=O)N2CCCCC2)N(C)C(=O)[C@H]([C@@H](C)CC)N(C)C(=O)C2(CCCC2)NC(=O)[C@@H](Cc2ccccc2)N(C)C(=O)[C@H](CCc2ccc(C(F)(F)F)c(Cl)c2)NC(=O)CN(C)C(=O)[C@H](Cc2ccc(C(F)(F)F)cc2)N(C)C(=O)[C@@H]2CCN2C(=O)[C@H](C)N(C)C1=O [Compound 1942] ([NMeA]I[NMeA][Aze][NMePhe(4-CF3)][Sar][hPhe(3-Cl-4-CF3)][dNMeF][Ac5c][NMeI][NMeD]-Piperidide; lactam N-11)	290 nM
CC[C@H](C)[C@@H]1NC(=O)[C@H](CC(C)C)N(C)C(=O)C[C@@H](C(=O)N(C)C)N(C)C(=O)[C@H]([C@@H](C)CC)N(C)C(=O)C2(CCCC2)NC(=O)[C@H](Cc2ccc(F)c(F)c2)N(C)C(=O)[C@H](CCc2ccc(C(F)(F)F)c(Cl)c2)NC(=O)CN(C)C(=O)[C@H](Cc2ccc(C)cc2)N(C)C(=O)[C@@H]2CCN2C(=O)[C@H](C)N(C)C1=O [Compound 1943] ([NMeL]I[NMeA][Aze][NMePhe(4-Me)][Sar][hPhe(3-Cl-4-CF3)][NMePhe(3,4-F2)][Ac5c][NMeI][NMeD]-NMe2; lactam N-11)	8 nM
CC[C@H](C)[C@@H]1NC(=O)[C@H](C)N(C)C(=O)C[C@@H](C(=O)N(C)C)N(C)C(=O)[C@H]([C@@H](C)CC)N(C)C(=O)C2(CCCC2)NC(=O)[C@H](Cc2cccc(I)c2)N(C)C(=O)[C@H](CCc2ccc(C(F)(F)F)c(Cl)c2)NC(=O)CN(C)C(=O)[C@H](Cc2ccc(C)cc2)N(C)C(=O)[C@@H]2CCN2C(=O)[C@H](C)N(C)C1=O [Compound 1944] ([NMeA]I[NMeA][Aze][NMePhe(4-Me)][Sar][hPhe(3-Cl-4-CF3)][NMePhe(3-I)][Ac5c][NMeI][NMeD]-NMe2; lactam N-11)	45 nM
CC[C@H](C)[C@@H]1NC(=O)[C@H](C)N(C)C(=O)C[C@@H](C(=O)N(C)C)N(C)C(=O)[C@H]([C@@H](C)CC)N(C)C(=O)C2(CCCC2)NC(=O)[C@H](Cc2cccc(OC(F)(F)F)c2)N(C)C(=O)[C@H](CCc2ccc(C(F)(F)F)c(Cl)c2)NC(=O)CN(C)C(=O)[C@H](Cc2ccc(C)cc2)N(C)C(=O)[C@@H]2CCN2C(=O)[C@H](C)N(C)C1=O [Compound 1945] ([NMeA]I[NMeA][Aze][NMePhe(4-Me)][Sar][hPhe(3-Cl-4-CF3)][X38][Ac5c][NMeI][NMeD]-NMe2; lactam N-11)	18 nM
CC[C@H](C)[C@@H]1NC(=O)[C@H](C)N(C)C(=O)C[C@@H](C(=O)N(C)C)N(C)C(=O)[C@H]([C@@H](C)CC)N(C)C(=O)C2(CCCC2)NC(=O)[C@H](Cc2ccc(F)cc2)N(C)C(=O)[C@H](CCc2ccc(C(F)(F)F)c(Cl)c2)NC(=O)CN(C)C(=O)[C@H](Cc2ccc(C(F)(F)F)cc2)N(C)C(=O)[C@@H]2CCN2C(=O)[C@H](C)N(C)C1=O [Compound 1951] ([NMeA]I[NMeA][Aze][NMePhe(4-CF3)][Sar][hPhe(3-Cl-4-CF3)][NMePhe(4-F)][Ac5c][NMeI][NMeD]-NMe2; lactam N-11)	9.9 nM
